Molecular target: T1, Interleukin-1 receptor-associated kinase 4 (Homo sapiens, UniProt Q9NWZ3)
T1 sequence (Q9NWZ3 whole entry): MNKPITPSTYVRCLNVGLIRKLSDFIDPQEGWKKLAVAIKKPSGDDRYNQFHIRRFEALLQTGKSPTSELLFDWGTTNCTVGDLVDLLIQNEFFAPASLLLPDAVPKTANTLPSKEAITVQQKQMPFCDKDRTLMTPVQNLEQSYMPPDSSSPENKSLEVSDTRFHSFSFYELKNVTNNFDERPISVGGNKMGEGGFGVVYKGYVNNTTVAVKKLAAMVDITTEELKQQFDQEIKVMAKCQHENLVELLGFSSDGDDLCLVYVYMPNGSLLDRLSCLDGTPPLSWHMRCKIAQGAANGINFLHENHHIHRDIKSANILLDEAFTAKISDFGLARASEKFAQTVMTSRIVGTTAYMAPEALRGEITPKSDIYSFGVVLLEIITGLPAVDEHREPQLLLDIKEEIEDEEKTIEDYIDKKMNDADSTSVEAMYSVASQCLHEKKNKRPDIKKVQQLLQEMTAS
Test: Inhibition Assay: The assays were performed in U-bottom 384-well plates. The final assay volume was 30 μL prepared from 15 μL additions of enzyme and substrates (fluoresceinated peptide and ATP) and test compounds in assay buffer (20 mM HEPES pH 7.2, 10 mM MgCl2, 0.015% Brij 35 and 4 mM DTT). The reaction was initiated by the combination of IRAK4 with substrates and test compounds. The reaction mixture was incubated at room temperature for 60 min. and terminated by adding 45 μL of 35 mM EDTA to each sample. The reaction mixture was analyzed on the Caliper LABCHIP® 3000 (Caliper, Hopkinton, Mass.) by electrophoretic separation of the fluorescent substrate and phosphorylated product. Inhibition data were calculated by comparison to no enzyme control reactions for 100% inhibition and vehicle-only reactions for 0% inhibition. The final concentrations of reagents in the assays are ATP, 500 μM; FL-IPTSPITTTYFFFKKK peptide 1.5 μM; IRAK4, 0.6 nM; and DMSO, 1.6%.

Structure (SMILES): CC[C@H]1[C@@H](COc2csc3cc(C(N)=O)c(OC)nc23)NC(=O)C1(C)C
- IC50: 595 nM

Reference: ChEMBL document CHEMBL5728099, “Thienopyridines and benzothiophenes useful as IRAK4 inhibitors” (2020)
